Measurements as given in patent publication US9849116B2 (KNOPP BIOSCIENCES LLC, priority 2008, dated 2017).
Read-outs that look alike come from different tables or passages of the source.

Assays:
D2 dopamine receptor = settings: read-out: D2 binding, IC50, cited from earlier work
male beagle dogs = settings: based on dog data
rodents [1] = settings: in vivo
dogs = settings: single oral dose; cited from earlier work
human subjects = settings: cited from earlier work
rodents [2] = settings: single oral dose; cited from earlier work
[3] = tested on: monkeys treated with MPTP; settings: cited from earlier work
[4] = tested on: restless legs syndrome patients; settings: treatment of restless legs syndrome; cited from earlier work
[5] = tested on: Parkinson's disease patients; settings: treatment of Parkinson's disease; cited from earlier work
monkeys = settings: single oral dose; cited from earlier work
D1 dopamine receptor = D1 dopamine receptor (Homo sapiens, UniProt P21728)
Description: (§1) These concentrations were tested in cell lines expressing select human cloned dopamine receptors (D2S, D3).

D5 dopamine receptor = D5 dopamine receptor (Homo sapiens, UniProt P21918)
Description: as §1

[6] = tested on: monkeys treated with MPTP; settings: monkey, in vivo
[7] = cited from earlier work
[8] = Lit.* Schneider & Mierau 1987 J. Med. Chem. 30: 494-498
[9] = Lit.** Wong & Shrikhande 2003 Society for Neuroscience Abstracts

Chain of D5 dopamine receptor (P21918 whole entry): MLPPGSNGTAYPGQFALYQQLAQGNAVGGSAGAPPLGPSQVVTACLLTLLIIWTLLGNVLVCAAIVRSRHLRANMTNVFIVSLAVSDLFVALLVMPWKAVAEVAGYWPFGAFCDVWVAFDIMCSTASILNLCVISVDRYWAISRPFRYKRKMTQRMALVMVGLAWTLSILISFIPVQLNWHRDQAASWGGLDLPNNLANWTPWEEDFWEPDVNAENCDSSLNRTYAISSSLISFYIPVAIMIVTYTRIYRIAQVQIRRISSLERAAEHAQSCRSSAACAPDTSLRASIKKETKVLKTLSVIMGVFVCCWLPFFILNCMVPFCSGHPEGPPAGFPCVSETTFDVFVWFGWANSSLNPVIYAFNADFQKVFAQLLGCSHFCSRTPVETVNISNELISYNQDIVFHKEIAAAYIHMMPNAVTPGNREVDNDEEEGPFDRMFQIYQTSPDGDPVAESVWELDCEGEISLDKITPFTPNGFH
Chain of D1 dopamine receptor (P21728 whole entry): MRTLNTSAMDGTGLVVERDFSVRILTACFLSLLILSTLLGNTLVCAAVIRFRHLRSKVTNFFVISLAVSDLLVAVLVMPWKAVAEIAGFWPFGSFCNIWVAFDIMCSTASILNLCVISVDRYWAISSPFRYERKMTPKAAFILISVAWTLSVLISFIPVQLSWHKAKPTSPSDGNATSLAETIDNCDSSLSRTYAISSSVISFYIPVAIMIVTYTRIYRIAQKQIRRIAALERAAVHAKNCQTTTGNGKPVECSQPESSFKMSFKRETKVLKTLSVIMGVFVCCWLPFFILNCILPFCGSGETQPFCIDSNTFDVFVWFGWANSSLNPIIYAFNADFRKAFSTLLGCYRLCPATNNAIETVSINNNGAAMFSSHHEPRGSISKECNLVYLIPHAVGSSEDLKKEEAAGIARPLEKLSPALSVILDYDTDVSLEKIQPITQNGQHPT

Compound	IC50 (D2 dopamine receptor; [8])	IC50 (D2 dopamine receptor; [9])	human equivalent dose of the NOAEL for a 70 kg individual (male beagle dogs)	human equivalence dose of the MTD (male beagle dogs; 70 kg human subject)	human dose equivalent to the lethal dose in rodents (rodents [1])	human dose equivalent to the lethal dose in rodents, 70 kg individual (rodents [1])	dose at which vomiting occurred (and above) (dogs)	dose shown to cause somnolence (human subjects; human subjects)	starting daily dose not tolerated (human subjects; naïve patient)	doses at which deaths occurred (and above) (rodents [2])	lowest effective oral dose [3]	lowest effective dose with a significant effect versus placebo [4]	lowest effective oral dose with a significant effect versus placebo [5]	dose at which major excitation was displayed (monkeys)	interaction with D1 dopamine receptor (D1 dopamine receptor)	interaction with D5 dopamine receptor (D5 dopamine receptor)	human dose equivalent to the lowest effective oral dose in monkeys [6]	human dose equivalent to the lowest effective oral dose in monkeys, 70 kg individual [6]	MRTD ([7]; FDA MRTD database)	MRTD ([7]; for a 70 lb. person)
CCCN[C@H]1CCc2nc(N)sc2C1 [(S)-pramipexole, (6S)-4,5,6,7-tetrahydro-N6-propyl-2,6-benzothiazole-diamine]			0.05 mg	0.30 mg	[…]	500 to 850 mg	[…]	[…]	[…]	[…]	0.053 mg/kg	[…]	[…]	3.5 mg/kg	no significant interaction	no significant interaction	[…]	[…]	[…]	[…]
